This experiment has as its target Xanthine dehydrogenase/oxidase (Bos taurus, UniProt P80457). As to the kind of experiment: Inhibition Assay: Xanthine oxidase (from bovine milk, Sigma) was prepared with phosphate-buffered saline (PBS) at 0.02 units/mL, and then the solution was added to 96 well plates at 50 μL/well. In addition, test compounds diluted with PBS were added at 50 μL/well. Xanthine (manufactured by Wako pure chemical) at 200 μM prepared with PBS was added at 100 μL/well, and the reaction was conducted for 10 minutes at room temperature. Absorbance at 290 nm was measured by using a microplate reader SpectraMax Plus 384 (manufactured by Molecular device).
Sequence of Xanthine dehydrogenase/oxidase (P80457 whole entry): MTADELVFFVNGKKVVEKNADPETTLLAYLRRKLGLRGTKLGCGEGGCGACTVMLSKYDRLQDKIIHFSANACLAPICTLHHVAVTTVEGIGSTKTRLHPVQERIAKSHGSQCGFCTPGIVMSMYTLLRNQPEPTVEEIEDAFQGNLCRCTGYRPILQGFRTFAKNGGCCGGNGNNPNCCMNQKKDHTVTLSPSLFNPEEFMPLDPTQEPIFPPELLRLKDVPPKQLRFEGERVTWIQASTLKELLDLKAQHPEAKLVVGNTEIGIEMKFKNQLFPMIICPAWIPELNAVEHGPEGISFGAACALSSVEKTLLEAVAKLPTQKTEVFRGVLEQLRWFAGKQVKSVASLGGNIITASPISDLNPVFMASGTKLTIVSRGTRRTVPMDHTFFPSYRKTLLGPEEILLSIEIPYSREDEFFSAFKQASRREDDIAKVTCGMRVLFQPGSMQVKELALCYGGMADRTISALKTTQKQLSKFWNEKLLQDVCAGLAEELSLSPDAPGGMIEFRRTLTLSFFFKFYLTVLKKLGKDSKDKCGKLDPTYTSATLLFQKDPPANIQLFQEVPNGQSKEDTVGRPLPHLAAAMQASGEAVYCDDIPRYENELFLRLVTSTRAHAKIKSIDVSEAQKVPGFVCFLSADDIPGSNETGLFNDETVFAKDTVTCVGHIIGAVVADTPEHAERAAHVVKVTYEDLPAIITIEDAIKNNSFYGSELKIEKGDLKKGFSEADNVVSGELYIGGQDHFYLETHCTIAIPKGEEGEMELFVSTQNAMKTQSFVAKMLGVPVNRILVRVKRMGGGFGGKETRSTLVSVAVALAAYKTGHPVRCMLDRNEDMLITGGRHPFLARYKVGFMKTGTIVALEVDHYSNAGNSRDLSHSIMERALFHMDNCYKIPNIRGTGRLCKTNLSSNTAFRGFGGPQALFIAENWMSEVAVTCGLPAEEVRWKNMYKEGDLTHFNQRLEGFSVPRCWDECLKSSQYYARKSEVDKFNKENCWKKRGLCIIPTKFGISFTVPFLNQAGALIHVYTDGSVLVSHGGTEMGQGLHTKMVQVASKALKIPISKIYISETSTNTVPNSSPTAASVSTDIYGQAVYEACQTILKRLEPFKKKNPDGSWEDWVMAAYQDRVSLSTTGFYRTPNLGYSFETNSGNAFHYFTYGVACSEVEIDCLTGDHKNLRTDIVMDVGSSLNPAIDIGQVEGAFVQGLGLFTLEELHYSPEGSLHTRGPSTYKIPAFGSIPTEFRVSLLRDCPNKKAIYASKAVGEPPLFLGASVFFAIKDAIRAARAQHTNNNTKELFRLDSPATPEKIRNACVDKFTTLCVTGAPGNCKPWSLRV
Broadly, the IC50 is the concentration needed to halve the response being measured. As to `[C-]#[N+]c1cn(-c2ccc(C(=O)O)c(O)c2)c2cscc12`, the IC50 came to 10 nM. Regarding `[C-]#[N+]c1cn(-c2ccc(C(=O)O)c(O)c2)c2sc(Br)cc12`, the IC50 stood at 14 nM.

Regarding `[C-]#[N+]c1cn(-c2ccc(C(=O)O)c(O)c2)c2sccc12`, the IC50 is 13 nM.
